Assay [1] concerns the target T1, human cytochrome P450 2D6 (Homo sapiens, UniProt P10635).
T1 construct: purchased Fisher Scientific, Waltham, MA; host or cells: insect cells (Supersomes)
Put plainly: Inhibition assay of human CYP450 enzymes. The note with it: fluorescent substrate. Format: in vitro ADME. How it is done: (§1) KIM-161 was assessed for its ability to inhibit the three major human CYP450 enzymes: 3A4, 2D6, and 2C9. The assays were run in triplicate. The expressed enzymes in insect Supersomes (Fisher Scientific, Waltham, MA) were used to minimize nonspecific binding and membrane partitioning issues ([McMasters et al., 2007]). The 3A4 assay uses testosterone as a substrate, and the analysis was performed by LC/MS/MS on a Waters Xevo TQ instrument as described above, using positive electrospray ionization. The assay acceptance criterion was 20% for all standards and 25% for the LLOQ. The 2D6 and 2C9 assays use fluorescent substrates (3-[2-(N,N-diethylamino)ethyl]-7-methoxy-4-methylcoumarin for 2D6; 7-methoxy-4-(trifluromethyl)coumarin for 2C9) and were analyzed on an Envision plate reader. GraphPad® Prism v.5.04 was used for nonlinear fitting of data to generate IC50 values.

For assay [2], the target named is T2, human cytochrome P450 3A4 (Homo sapiens, UniProt P08684).
T2 construct: purchased Fisher Scientific, Waltham, MA; host or cells: insect cells (Supersomes)
Put plainly: Inhibition assay of human CYP450 enzymes. Format: in vitro ADME. As to conditions: testosterone substrate. The protocol: as §1

The target in assay [3] is T3, human cytochrome P450 2C9 (Homo sapiens, UniProt P11712).
T3 construct: purchased Fisher Scientific, Waltham, MA; host or cells: insect cells (Supersomes)
The assay can be described thus: Inhibition assay of human CYP450 enzymes. The note with it: fluorescent substrate. Format: in vitro ADME. How it is done:
as §1

Assay [4] deals with HCT116 colon cancer cell line. The assay can be described thus: MTT antiproliferative assay. As to conditions: Homo sapiens, HCT-116. Format: cell-based. The protocol: (§2) The compounds were screened for their anticancer activities against a variety of cancer cell lines. The cytotoxic effect of the compounds was evaluated using the sulforhodamine B (SRB) cytotoxicity assay for breast cancer line (MCF7) and prostate cancer cell line (PC3) ([Vichai and Kirtikara, 2006]; [Rana et al., 2021]) and 3-(4,5-dimethylthiazol-2-yl)-2,5-diphenyl-2H-tetrazolium bromide (MTT) assay for the colon cancer (HCT116) cell lines ([El-Huneidi et al., 2020]). The CellTiter-Blue® cell viability assay was performed on the various leukemia cell lines, HL60, NB4, and KG1a cells ([Akter et al., 2019]). The IC50 values are illustrated in Table 1.
(§3) MCF7 (breast), PC3 (prostate), and HCT116 (colon) cancer cell lines were obtained from ATCC, Manassas, VA, USA. Cells were grown in Roswell Park Memorial Institute-1640 (RPMI-1640) medium (Thermo Fisher Scientific, Inc., Waltham, MA, USA), supplemented with 10% heat inactivated fetal bovine serum (FBS), 50 units/mL of penicillin, and […] of streptomycin and maintained at 37°C in a humidified atmosphere containing 5% CO2. The cells were maintained as “monolayer culture” by serial subculturing.
The test compounds were evaluated for antiproliferative activity using the MTT viability assay against the HCT116 cell line. The cells were seeded in triplicate in 96-well plates at a density of 10 × 10^3 cells/mL in a total volume of 200 µL per well. 0.1% of DMSO was used as a vehicle control. Each well was treated with 2 µL of test compound, which had been preprepared as stock solutions in ethanol to furnish the concentration range of the study, 0.1–50 μM, and re-incubated for a further 72 h at 37°C in a humidified atmosphere containing 5% CO2. The culture medium was then removed, and the cells were washed with 100 µL of PBS, and 100 µL of MTT was added, to reach a final concentration of 1 mg/ml of MTT. The cells were incubated for 3 h in darkness at 37°C. After removal of MTT solution, solubilization was initiated through the addition of […] of DMSO, and the cells were maintained at room temperature in darkness for 20 min to ensure thorough color diffusion before reading the absorbance with a microplate reader at 570 nm. The results were expressed as percentage viability relative to vehicle control (100%). The dose–response curves were plotted, and the IC50 values (concentration of drug resulting in 50% reduction in cell survival) were obtained using the commercial software package Prism (GraphPad® Software, Inc., La Jolla, CA, USA). All the experiments were repeated in at least three independent experiments.

For assay [5], the system named is MCF7 breast cancer cell line. Put plainly: SRB cytotoxicity assay. Format: cell-based, human. The note with it: MCF7, SRB, 72 h, read-out: IC50 ± SEM MCF7. How it is done: as §2, §3
Exponentially growing MCF7 and PC3 cells were collected using 0.25% Trypsin-EDTA and were then seeded in 96-well plates at a density of 1,000–2,000 cells/well in 10% FBS and penicillin/streptomycin supplemented RPMI-1640 medium. After 24 h, the cells were treated with different concentrations of the test compounds and incubated for 72 h at 37°C in a humidified atmosphere containing 5% CO2. Next, the cells were fixed by trichloroacetic acid (TCA) (10% final concentration in wells) directly to the wells and incubated for 1 h at 4°C, then the cells were washed with distilled water five times to remove excess TCA, media, serum proteins, and metabolites, followed by air drying. After that, the fixed cells were stained with 0.4% SRB dissolved in 1% acetic acid for 10 min at room temperature, and excess stain was removed by quickly rinsing with 1% acetic acid. The residual acetic acid was removed completely by air drying the plates for 24 h, and the dye was solubilized with Tris buffer (pH = 7.4, 10 mM) for 5 min on a shaker at 1,600 rpm. The optical density of each well was measured spectrophotometrically at 564 nm with an ELISA microplate reader (ChroMate-4300, FL, USA). The IC50 values were calculated according to the equation for Boltzman sigmoidal concentration–response curve using the nonlinear regression fitting models (GraphPad®, Prism Version 5).
On the technique in general: In SRB staining, fixed cells bind dye roughly in proportion to their protein.

In the next assay the test system is HL60 cells. The assay can be described thus: Apoptosis detection by caspase-3 activity. The note with it: HL60, 1 μM, 48 h. Format: cell-based, human. An excerpt: The activated caspase-3 is a marker for cell apoptosis that proteolytically cleaves and activates other caspases and intracellular targets ([Patel et al., 1996]). Caspase-3, which is activated during the early stages of apoptosis, could be measured in HL60 cells undergoing apoptosis by using fluorescein isothiocyanate (FITC)–conjugated active caspase-3 antibody.
FITC conjugated active caspase-3 antibody (BD biosciences, USA) was used to detect the active form of caspase-3 in the cells undergoing apoptosis. Cells were plated in a 6-well culture plate at a density of 0.5 × 10^6 cells and harvested after 24 and 48 h of incubation with the test compound. The collected cells were washed twice with cold 1X PBS and then resuspended in 0.5 ml of BD Cytofix/Cytoperm solution followed by a 20-min incubation on ice. After incubation, the cells were washed twice in a BD Perm/Wash buffer (1X) and were labelled with 5 µL of FITC rabbit anti-caspase-3 antibodies. The labelled cells were washed again with wash buffer and resuspended in 0.5 ml of buffer and analyzed by acquiring a minimum of 5,000 events on the FACSAria III cell analyzer and sorter.

The structures appear in SMILES notation. Read-outs that look alike come from different tables or passages of the source.

A word on the IC50: it is the concentration at which inhibition is half-maximal.

T1 sequence (P10635 whole entry): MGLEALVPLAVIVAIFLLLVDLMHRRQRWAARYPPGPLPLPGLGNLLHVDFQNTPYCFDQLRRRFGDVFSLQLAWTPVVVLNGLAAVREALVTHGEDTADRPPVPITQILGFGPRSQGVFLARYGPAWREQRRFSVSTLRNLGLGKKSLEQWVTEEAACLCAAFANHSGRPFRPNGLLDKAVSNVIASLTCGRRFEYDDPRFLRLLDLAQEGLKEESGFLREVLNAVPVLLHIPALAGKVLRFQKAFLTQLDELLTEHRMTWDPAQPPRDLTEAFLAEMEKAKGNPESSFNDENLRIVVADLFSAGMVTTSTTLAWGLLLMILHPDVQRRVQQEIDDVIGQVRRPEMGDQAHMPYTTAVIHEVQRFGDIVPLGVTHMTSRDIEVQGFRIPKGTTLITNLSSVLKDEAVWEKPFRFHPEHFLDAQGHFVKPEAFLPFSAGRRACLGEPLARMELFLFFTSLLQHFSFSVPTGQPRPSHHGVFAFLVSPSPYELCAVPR
T2 sequence (P08684 whole entry): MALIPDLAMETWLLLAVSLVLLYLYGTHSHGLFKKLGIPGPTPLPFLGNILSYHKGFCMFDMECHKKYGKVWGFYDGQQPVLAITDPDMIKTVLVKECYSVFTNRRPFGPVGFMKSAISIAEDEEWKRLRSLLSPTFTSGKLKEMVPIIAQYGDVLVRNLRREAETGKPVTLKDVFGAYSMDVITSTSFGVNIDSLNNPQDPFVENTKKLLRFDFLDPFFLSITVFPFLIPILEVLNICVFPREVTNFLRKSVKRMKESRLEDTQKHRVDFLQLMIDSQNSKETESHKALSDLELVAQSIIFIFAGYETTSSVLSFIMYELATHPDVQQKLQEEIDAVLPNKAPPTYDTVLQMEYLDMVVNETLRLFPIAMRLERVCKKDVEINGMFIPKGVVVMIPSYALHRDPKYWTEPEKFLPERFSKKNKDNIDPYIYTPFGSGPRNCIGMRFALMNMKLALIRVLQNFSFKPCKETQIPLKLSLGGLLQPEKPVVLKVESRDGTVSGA
T3 sequence (P11712 whole entry): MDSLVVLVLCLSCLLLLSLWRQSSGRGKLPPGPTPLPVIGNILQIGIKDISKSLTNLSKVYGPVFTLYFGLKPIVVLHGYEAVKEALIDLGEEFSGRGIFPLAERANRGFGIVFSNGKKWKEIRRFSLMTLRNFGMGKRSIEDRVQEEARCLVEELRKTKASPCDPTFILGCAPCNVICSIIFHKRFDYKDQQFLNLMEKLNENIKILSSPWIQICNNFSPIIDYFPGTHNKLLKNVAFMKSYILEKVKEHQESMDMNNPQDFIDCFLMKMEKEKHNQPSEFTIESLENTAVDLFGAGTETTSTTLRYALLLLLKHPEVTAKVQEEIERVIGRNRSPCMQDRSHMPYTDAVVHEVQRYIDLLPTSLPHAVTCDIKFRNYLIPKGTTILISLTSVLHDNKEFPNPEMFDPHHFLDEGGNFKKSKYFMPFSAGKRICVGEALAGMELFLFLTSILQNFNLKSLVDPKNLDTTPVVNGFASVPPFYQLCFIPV

As to `COc1ccc(/C=C2\N=C(C)N(c3ccc(CC(=O)NCc4ccccc4)cc3)C2=O)cc1` [Compound 4c, (Z)-N-Benzyl-2-(4-(4-(4-methoxybenzylidene)-2-methyl-5-oxo-4,5-dihydro-1H-imidazol-1-yl)phenyl)acetamide], the IC50 in assay [1] is at least 10000 nM; in assay [2] it was at least 10000 nM; in assay [3], at least 10000 nM; in assay [4] (HCT116, MTT, 72 h, read-out: IC50 ± SEM HCT116), 294 nM; in assay [4] (HCT116 colon cancer, abstract, read-out: cytotoxic IC50 HCT116), 294 nM; in assay [5] (Homo sapiens, MCF7, 72 h), 1140 nM. For the same compound, the IC50 in assay [5] came out at 1140 ± 190 nM. For the same compound, in the assay on HL60 cells, the “Casp3 active %P” value is 49.94%. In the assay with HL60 cells, the “increase in the cells undergoing apoptosis (active caspase-3) vs untreated” value is listed as around 10 fold.

The values are drawn from PMC8766756, “Insights on Cancer Cell Inhibition, Subcellular Activities, and Kinase Profile of Phenylacetamides Pending 1H-Imidazol-5-One Variants” (Frontiers in Pharmacology, 2022).
